US11684614B2, “Formulations of hydroxypyridonate actinide/lanthanide decorporation agents” (priority 2017, dated 2023)

Experiment: 3,4,3-LI(1,2-HOPO)-excipient compatibility study (visual observation, HPLC purity and impurities on storage)
Format: physicochemical
Settings: for 3L1O Purity / Total Impurities: n = 1
Experimental: The objective of the analytical study described in this report was to evaluate the interactions between 3,4,3-L1(1,2-HOPO) and selected pharmaceutical excipients under 25° C./60% RH and 40° C./75% RH conditions over eight weeks. Physical appearance and potency of the different samples were assessed at T=0, 2, 4, and 8 weeks through visual observations and high performance liquid chromatography (HPLC) analysis.
The stability of 3,4,3-L1(1,2-HOPO) was tested according to the conditions listed below in TABLE 1.1. A11 test samples were stored throughout the study in 40 mL clear USP Type 1 glass vials (28 mm OD×95 mm height; 24 mm screw cap), wrapped in aluminum foil.
• Test Samples: Each test mixture was prepared by weighing the desired quantity of 3,4,3-L1(1,2-HOPO) and excipient (both screened through sieve #40) into vials. Both ingredients were first mixed using a clean glass rod and then vortexed. At each time interval, one vial was withdrawn from each drug-excipient series along with the corresponding placebo preparation and tested as described below.
b. Sample Characterization • Visual Observation: For each sample solution, visual observation consisted in recording color and physical form.
c. Chromatographic Assay and Purity Assessment • Standard Stock Solutions: For each standard stock solutions, the test article was weighed (200 mg) and dissolved by sonication into 30 mL of diluent (water:acetonitrile=90%:10%). After equilibration at room temperature, the volume of the standard solution was adjusted to 50 mL. Standard stock solutions were prepared in duplicates, working standard solutions were prepared by dilution of each stock with the diluent to the desired concentrations. • Calibration Standards: With each experiment, 5 calibration standard solutions at different concentrations were prepared from stock solutions using the diluent. Concentrations of the calibration standards were between 1.6 and 2.4 mg/mL. […] The vials were then mechanically shaken for 15 minutes, followed by centrifugation of the sample solutions (10,000 rpm, 10 min), and the supernatants were used for the assay. • Placebo Preparation: 25 mL of diluent was added to each of the placebo vial. The vials were then mechanically shaken for 15 minutes, followed by centrifugation of the sample solutions (10,000 rpm, 10 min), and the supernatants were used for the assay. Analytical Method: Instrument: Waters Alliance 2695 liquid chromatography system Column: Agilent, Eclipse XDB-C18, 4.6×150 mm, 5 μm. Mobile Phase A: 0.05% formic acid in 95% H2O: 5% ACN Mobile Phase B: 0.05% formic acid in acetonitrile (ACN)
Column Temperature: 25° C. Flow Rate: 1.0 mL/min. Injection Volume: 10 μL Detection: 250 nm Run Time: 50 min Diluent: 9:1 H2O:ACN Analysis Sequence:
• Suitability Requirements: There should be no interference from the diluent/blank at the retention times of 3,4,3-L1(1,2-HOPO) peaks. The relative standard deviation (% RSD) for five replicate system suitability injections should be below 2.0%. The response factor of the second standard should be within 95-105%. The correlation coefficient (R2) of the system linearity standards should be higher than 0.990. 5. Results

## O=C(NCCCN(CCCCN(CCCNC(=O)c1cccc(=O)n1O)C(=O)c1cccc(=O)n1O)C(=O)c1cccc(=O)n1O)c1cccc(=O)n1O [3,4,3-L1(1,2-HOPO)]
25° C./60% RH and 40° C./75% RH, over 8 weeks
  Stability of 3,4,3-L1(1,2-HOPO): stable over 8 weeks
25° C./60% RH, 2 Weeks
  Unknown Impurity RRT 0.24: 0.03 % w/w
  Unknown Impurity RRT 0.58: 0.05 % w/w
  Unknown Impurity RRT 0.59: 0.05 % w/w
  Unknown Impurity RRT 0.62: 0.05 % w/w
  Unknown Impurity RRT 0.87: 0.12 % w/w
  Unknown Impurity RRT 0.89: 0.03 % w/w
  Unknown Impurity RRT 1.02: 0.08 % w/w
  Unknown Impurity RRT 1.11: 0.05 % w/w
  Unknown Impurity RRT 1.27: 0.36 % w/w
  Unknown Impurity RRT 1.3: 0.22 % w/w
  Unknown Impurity RRT 1.39: 0.07 % w/w
  Unknown Impurity RRT 1.41: 0.03 % w/w
  Unknown Impurity RRT 1.46: 0.08 % w/w
  Unknown Impurity RRT 2.31: 0.05 % w/w
  Unknown Impurity RRT 2.6: 0.04 % w/w
  Unknown Impurity RRT 2.8: 0.03 % w/w
  3L1O Purity: 98.67 % Area
  Total Impurities: 1.33 % Area
25° C./60% RH, 4 weeks
  Unknown Impurity RRT 0.24: 0.03 % w/w
  Unknown Impurity RRT 0.58: 0.07 % w/w
  Unknown Impurity RRT 0.6: 0.05 % w/w
  Unknown Impurity RRT 0.62: 0.05 % w/w
  Unknown Impurity RRT 0.87: 0.14 % w/w
  Unknown Impurity RRT 0.89: 0.02 % w/w
  Unknown Impurity RRT 1.03: 0.04 % w/w
  Unknown Impurity RRT 1.11: 0.05 % w/w
  Unknown Impurity RRT 1.27: 0.28 % w/w
  Unknown Impurity RRT 1.3: 0.26 % w/w
  Unknown Impurity RRT 1.39: 0.07 % w/w
  Unknown Impurity RRT 1.41: 0.01 % w/w
  Unknown Impurity RRT 1.46: 0.09 % w/w
  Unknown Impurity RRT 1.72: 0.05 % w/w
  Unknown Impurity RRT 2.3: 0.05 % w/w
  Unknown Impurity RRT 2.59: 0.04 % w/w
  Unknown Impurity RRT 2.79: 0.03 % w/w
  3L1O Purity: 98.66 % Area
  Total Impurities: 1.34 % Area
25° C./60% RH, 8 Weeks
  Unknown Impurity RRT 0.24: 0.04 % w/w
  Unknown Impurity RRT 0.58: 0.07 % w/w
  Unknown Impurity RRT 0.59: 0.05 % w/w
  Unknown Impurity RRT 0.62: 0.06 % w/w
  Unknown Impurity RRT 0.87: 0.15 % w/w
  Unknown Impurity RRT 0.89: 0.02 % w/w
  Unknown Impurity RRT 1.03: 0.08 % w/w
  Unknown Impurity RRT 1.11: 0.05 % w/w
  Unknown Impurity RRT 1.27: 0.41 % w/w
  Unknown Impurity RRT 1.3: 0.23 % w/w
  Unknown Impurity RRT 1.39: 0.07 % w/w
  Unknown Impurity RRT 1.41: 0.01 % w/w
  Unknown Impurity RRT 1.46: 0.09 % w/w
  Unknown Impurity RRT 1.73: 0.06 % w/w
  Unknown Impurity RRT 2.31: 0.07 % w/w
  Unknown Impurity RRT 2.6: 0.05 % w/w
  Unknown Impurity RRT 2.8: 0.03 % w/w
  3L1O Purity: 98.47 % Area
  Total Impurities: 1.53 % Area
40° C./75% RH, 2 Weeks
  Unknown Impurity RRT 0.24: 0.06 % w/w
  Unknown Impurity RRT 0.58: 0.07 % w/w
  Unknown Impurity RRT 0.59: 0.06 % w/w
  Unknown Impurity RRT 0.62: 0.06 % w/w
  Unknown Impurity RRT 0.81: 0.02 % w/w
  Unknown Impurity RRT 0.87: 0.13 % w/w
  Unknown Impurity RRT 0.89: 0.07 % w/w
  Unknown Impurity RRT 1.02: 0.07 % w/w
  Unknown Impurity RRT 1.11: 0.06 % w/w
  Unknown Impurity RRT 1.27: 0.36 % w/w
  Unknown Impurity RRT 1.3: 0.16 % w/w
  Unknown Impurity RRT 1.39: 0.05 % w/w
  Unknown Impurity RRT 1.41: 0.01 % w/w
  Unknown Impurity RRT 1.46: 0.07 % w/w
  Unknown Impurity RRT 2.31: 0.05 % w/w
  Unknown Impurity RRT 2.59: 0.04 % w/w
  Unknown Impurity RRT 2.8: 0.03 % w/w
  3L1O Purity: 98.62 % Area
  Total Impurities: 1.38 % Area
40° C./75% RH, 4 weeks
  Unknown Impurity RRT 0.24: 0.05 % w/w
  Unknown Impurity RRT 0.58: 0.09 % w/w
  Unknown Impurity RRT 0.6: 0.06 % w/w
  Unknown Impurity RRT 0.62: 0.07 % w/w
  Unknown Impurity RRT 0.81: 0.02 % w/w
  Unknown Impurity RRT 0.87: 0.16 % w/w
  Unknown Impurity RRT 0.89: 0.03 % w/w
  Unknown Impurity RRT 1.02: 0.03 % w/w
  Unknown Impurity RRT 1.11: 0.06 % w/w
  Unknown Impurity RRT 1.27: 0.26 % w/w
  Unknown Impurity RRT 1.3: 0.2 % w/w
  Unknown Impurity RRT 1.39: 0.74 % w/w
  Unknown Impurity RRT 1.41: 0.01 % w/w
  Unknown Impurity RRT 1.46: 0.08 % w/w
  Unknown Impurity RRT 1.72: 0.09 % w/w
  Unknown Impurity RRT 2.3: 0.04 % w/w
  Unknown Impurity RRT 2.59: 0.03 % w/w
  Unknown Impurity RRT 2.79: 0.02 % w/w
  3L1O Purity: 98.63 % Area
  Total Impurities: 1.37 % Area
40° C./75% RH, 8 Weeks
  Unknown Impurity RRT 0.24: 0.34 % w/w
  Unknown Impurity RRT 0.58: 0.2 % w/w
  Unknown Impurity RRT 0.59: 0.16 % w/w
  Unknown Impurity RRT 0.62: 0.18 % w/w
  Unknown Impurity RRT 0.81: 0.05 % w/w
  Unknown Impurity RRT 0.87: 0.18 % w/w
  Unknown Impurity RRT 0.89: 0.32 % w/w
  Unknown Impurity RRT 0.91: 0.11 % w/w
  Unknown Impurity RRT 0.95: 0.04 % w/w
  Unknown Impurity RRT 1.02: 0.09 % w/w
  Unknown Impurity RRT 1.12: 0.05 % w/w
  Unknown Impurity RRT 1.27: 0.4 % w/w
  Unknown Impurity RRT 1.31: 0.01 % w/w
  Unknown Impurity RRT 1.39: 0.08 % w/w
  Unknown Impurity RRT 1.41: 0 % w/w
  Unknown Impurity RRT 1.46: 0.12 % w/w
  Unknown Impurity RRT 1.72: 0.1 % w/w
  Unknown Impurity RRT 2.31: 0.03 % w/w
  Unknown Impurity RRT 2.6: 0.02 % w/w
  Unknown Impurity RRT 2.8: 0.02 % w/w
  3L1O Purity: 97.49 % Area
  Total Impurities: 2.51 % Area
Initial (T = 0)
  Unknown Impurity RRT 0.58: 0.05 % w/w
  Unknown Impurity RRT 0.59: 0.04 % w/w
  Unknown Impurity RRT 0.62: 0.04 % w/w
  Unknown Impurity RRT 0.87: 0.1 % w/w
  Unknown Impurity RRT 0.89: 0.02 % w/w
  Unknown Impurity RRT 1.03: 0.21 % w/w
  Unknown Impurity RRT 1.11: 0.04 % w/w
  Unknown Impurity RRT 1.27: 0.29 % w/w
  Unknown Impurity RRT 1.3: 0.21 % w/w
  Unknown Impurity RRT 1.39: 0.09 % w/w
  Unknown Impurity RRT 1.41: 0.01 % w/w
  Unknown Impurity RRT 1.46: 0.11 % w/w
  Unknown Impurity RRT 2.31: 0.05 % w/w
  3L1O Purity: 98.73 % Area
  Total Impurities: 1.27 % Area
